Test results published in US11793748B1, “Pharmaceutical compositions of aspirin for parenteral administration” (GOOD HEALTH, LLC, priority 2019, dated 2023).

Assays:
[1] = Solubility testing of aspirin in commonly used co-solvents; type: physicochemical; conditions: 120 mg/3 mL; for Reconstitution time for milled API (Approx. 124 μm, BSS Sieve 120 passed): after shaking
Experimental: The solubility of aspirin was determined using propylene glycol and polyethylene glycol (PEG-300 and PEG-400), which are widely used in intravenous formulations.

[2] = Effect of bases on reconstitution time for aspirin in propylene glycol; type: physicochemical; conditions: aspirin 40 mg/mL, with shaking
Experimental: Solutions of propylene glycol with different bases were prepared by sonicating mixtures of propylene glycol and bases. Aspirin was added to those solutions and shaken in a circular motion.

[3] = Solubility and reconstitution of aspirin in semi-aqueous diluents; type: physicochemical; conditions: aspirin 80 mg (sieve 120 mesh passed), after shaking for 5 minutes
Experimental: Diluent solutions were prepared by mixing solvent and water. Aspirin was added and the vials were shaken in a swirling motion.

[4] = Effect of lactose on reconstitution time in solvent-water mixture; type: physicochemical; conditions: aspirin 80 mg, lactose 80 mg
Experimental: Diluent Preparation: Water, lactose, and base were taken in a vial and sonicated until a clear solution is formed. Solvent was then added and mixed for a minute. To these diluents, aspirin was added and shaken in a swirling motion.

[5] = Effect of lactose and mannitol combination on reconstitution time; type: physicochemical; conditions: aspirin 80 mg (120 sieve passed)
Experimental: A mixture of lactose and mannitol were tried to improve reconstitution time. Diluents were then prepared by dissolving base and sugars in water and followed by addition of PEG 300. The diluent was transferred to a vial containing aspirin, and the vial was shaken in a swirling motion.

[6] = Reconstitution time for aspirin-lactose premix; type: physicochemical; conditions: aspirin 80 mg + 160 mg lactose premix (both 120 sieve passed), water 1.5 ml
Excerpt: […] The diluent was transferred to a vial containing aspirin triturated with lactose. The mixture was shaken in the vial in a swirling motion.

[7] = Stability of reconstituted aspirin solutions by HPLC; type: physicochemical
Experimental: Stability was determined by HPLC analysis using the following parameters:
Mobile Phase: Solution containing 15% acetonitrile and 85% water with 2 g/L of heptanesulfonate sodium. The pH of the solution was adjusted to 3.4.
Injection volume: 10 μl, the concentration of aspirin in sample and standard injections were maintained at about 0.5 mg/mL.
The stability of Trials 3-5 was tested using the HPLC method described above.

[8] = Reconstitution trials for micronized aspirin with aqueous solutions containing bases; type: physicochemical; conditions: aspirin 5.0 mg/mL; reconstitution with meglumine
Experimental: […] […] Shaken up and down vigorously to check reconstitution and clarity.
The reconstitution of higher doses of aspirin with aqueous solutions of bases indicate superiority using a combination of meglumine and sodium citrate over same bases used separately.
Therefore, these dilute solutions of the invention are suitable for slow infusion for a longer time. For example, the infusion can be made over 30 minutes to about 100 minutes with an infusion rate of about 3 mL/min to 0.8 mL/min. The rate of infusion of the invention can depend on the clinical conditions of patients, and can be modified as necessary. In certain cases, a bolus injection of concentrated aspirin solutions may be required. The aspirin solution (50 mg/mL) of the invention can be given as a bolus injection (e.g., 10 mL within 2-5 minutes).

[9] = solubilization accompanied by aspirin degradation; cited from earlier work
[10] = bicin, tricin, CAPS, TAPS, HEPES and AMPSO buffers; remained as suspended particles; cited from earlier work
[11] = Stability of recrystallized aspirin powder; conditions: for % Assay / % S.A (salicylic acid impurity): 6 months 40° C./75% RH
[12] = Lysine 40 mg, water 1.8 ml + PEG 300 1.2 ml
[13] = Lysine 40 mg, water 1.8 ml + PEG 400 1.2 ml
[14] = Tris 40 mg, water 1.8 ml + PEG 300 1.2 ml
[15] = Tris 40 mg, water 1.8 ml + PEG 400 1.2 ml
[16] = Lysine 40 mg, lactose 80 mg + mannitol 80 mg, water 1.2 ml + PEG-300 1.8 ml
[17] = Meglumine 40 mg, lactose 20 mg + mannitol 60 mg, distilled water 1.2 ml + PEG 300 1.8 ml
[18] = Meglumine 40 mg, lactose 20 mg + mannitol 60 mg, distilled water 1.5 ml + PEG 300 1.5 ml
[19] = Meglumine 40 mg, lactose 20 mg + mannitol 60 mg, distilled water 1.8 ml + PEG 300 1.2 ml
[20] = Tris 40 mg, lactose 20 mg + mannitol 60 mg, distilled water 1.2 ml + PEG 300 1.8 ml
[21] = Tris 40 mg, lactose 20 mg + mannitol 60 mg, distilled water 1.5 ml + PEG 300 1.5 ml
[22] = Tris 40 mg, lactose 20 mg + mannitol 60 mg, distilled water 1.8 ml + PEG 300 1.2 ml
[23] = Tris 40 mg, lactose 80 mg + mannitol 80 mg, water 1.2 ml + PEG-300 1.8 ml
[24] = Tris 40 mg, lactose 80 mg + mannitol 80 mg, water 1.5 ml + PEG-300 1.5 ml
[25] = Tris 40 mg, lactose 80 mg + mannitol 80 mg, water 1.8 ml + PEG-300 1.2 ml
[26] = Aspirin API, not reconstituted (reference line of stability tables)

CC(=O)Oc1ccccc1C(=O)O [Aspirin, aspirin]
Reconstitution time for unmilled Aspirin ([1]; PEG-300): Not easily soluble, | Reconstitution time for milled API (Approx. 124 μm, BSS Sieve 120 passed) ([1]; PEG-300): Soluble in 3 minutes, | Reconstitution time for unmilled Aspirin ([1]; PEG-400): Not easily soluble, | Reconstitution time for milled API (Approx. 124 μm, BSS Sieve 120 passed) ([1]; PEG-400): Soluble in 3 minutes, | Reconstitution time for unmilled Aspirin ([1]; propylene glycol): Not easily soluble, | Reconstitution time for milled API (Approx. 124 μm, BSS Sieve 120 passed) ([1]; propylene glycol): Soluble in 3 minutes, | Reconstitution time for milled API (Approx. 124 μm, BSS Sieve 120 passed) ([2]; propylene glycol with 10 mg/mL Arginine): 3 minutes with shaking. | Reconstitution time for milled API (Approx. 124 μm, BSS Sieve 120 passed) ([2]; propylene glycol with 10 mg/mL Lysine): 1.40 minutes with shaking. | Reconstitution time for milled API (Approx. 124 μm, BSS Sieve 120 passed) ([2]; propylene glycol with 10 mg/mL Meglumine): 2 minutes with shaking. | Reconstitution time for milled API (Approx. 124 μm, BSS Sieve 120 passed) ([2]; propylene glycol with 10 mg/mL Tromethamine): 1.45 minutes with shaking. | Observation ([3]; 1.8 mL PEG 300 + 1.2 mL water): Turbid with particles | Observation ([3]; 1.8 mL PEG 400 + 1.2 mL water): Turbid with particles | Observation ([3]; 1.8 mL propylene glycol + 1.2 mL water): Turbid with particles | Observation [4, 12]: Clear | Reconstitution time [4, 12]: 3.15 min | Observation [4, 13]: Clear | Reconstitution time [4, 13]: 3.50 min | Observation [4, 14]: Clear | Reconstitution time [4, 14]: 3.20 min | Observation [4, 15]: Clear | Reconstitution time [4, 15]: 2.40 min | Observation [5, 16]: hazy | Reconstitution time [5, 16]: 2.00 min | Observation [5, 17]: hazy | Reconstitution time [5, 17]: 2.00 min | Observation [5, 18]: Clear | Reconstitution time [5, 18]: 2.20 min | Observation [5, 19]: Clear | Reconstitution time [5, 19]: 2.30 min | Observation [5, 20]: Clear | Reconstitution time [5, 20]: 2.00 min | Observation [5, 21]: Clear | Reconstitution time [5, 21]: 2.10 min | Observation [5, 22]: Clear | Reconstitution time [5, 22]: 2.30 min | Observation [5, 23]: hazy | Reconstitution time [5, 23]: 2.10 min | Observation [5, 24]: Clear | Reconstitution time [5, 24]: 2.25 min | Observation [5, 25]: Clear | Reconstitution time [5, 25]: 2.10 min | Observation ([6]; Tris 30 mg): Clear | Reconstitution time ([6]; Tris 30 mg): 2.00 min | Observation ([6]; Tris 35 mg): Clear | Reconstitution time ([6]; Tris 35 mg): 1.25 min | Observation ([6]; Tris 40 mg): Clear | Reconstitution time ([6]; Tris 40 mg): 1.00 min | Observation ([6]; Tris 50 mg): hazy | Reconstitution time ([6]; Tris 50 mg): 1.40 min | % Salicylic acid [7, 26]: 0.24% | Aspirin peak purity [7, 26]: 99.76% | period for which reconstituted aspirin was stable ([7]; higher concentration (50 mg/mL), aqueous solution containing both meglumine and sodium citrate, 2-8° C.): about 5 hours | time to clear solution on reconstitution [8]: ≤ 2 min | solubility in aqueous alkali hydroxide solutions and aqueous bicarbonate solutions [9]: soluble | solubility in aqueous buffers [10]: poor | period stable at room temperature ([11]; room temperature, inferred from accelerated stability data): at least 2 years

CC(=O)Oc1ccccc1C(=O)O [Recrystallization from Acetone]
% Assay ([11]; recrystallized powder): 97.20% | % S.A (salicylic acid impurity) ([11]; recrystallized powder): 0.505%

CC(=O)Oc1ccccc1C(=O)O [Recrystallization from Ethanol]
% Assay ([11]; recrystallized powder): 97.72% | % S.A (salicylic acid impurity) ([11]; recrystallized powder): 0.452% | stability at accelerated conditions ([11]; recrystallized powder, accelerated conditions (6 months 40° C./75% RH)): stable

CC(=O)Oc1ccccc1C(=O)O [Recrystallization from Isopropanol]
% Assay ([11]; recrystallized powder): 99.35%
